Measurements taken from patent US20070149580A1, “USE OF PEROXISOME PROLIFERATOR ACTIVATED RECEPTOR DELTA AGONISTS FOR THE TREATMENT OF MS AND OTHER DEMYELINATING DISEASES” (AVENTIS PHARMACEUTICALS INC., priority 2004, published 2007).

Key:
Assay type in all cases: cell-based
[1] = system: PPAR delta pathway in cultured rat oligodendrocytes; assay: Quantitative PCR of PPAR delta pathway transcriptional markers (ADRP mRNA) in cultured rat oligodendrocytes; conditions: FIG. 4B
Description: • 1. Primary rat oligodendrocyte progenitor cells are obtained from the neocortex of newborn (postnatal days 2-3) rats or mice and are enriched, after removal of microglia, by mechanical separation from the astrocytic monolayer using a modification of the technique originally described by McCarthy and de Vellis (1980). • 2. Remove the meninges from neonatal rat brain and mechanically dissociate tissue. Plate cells on T75 flasks and feed cells with DMEM/F12+10% FBS. • 3. Collect oligodendrocytes growing on the astrocyte bed layer by shaking-off method fourteen days after the original prep date. Centrifuge the suspension and resuspend the cell pellet in serum free media (SFM; DMEM combined with 25 μg/ml transferring, 30 nM triiodothyronine, 20 nM hydrocortisone, 20 nM progesterone, 10 nM biotin, 1× trace elements, 30 nM selenium, 1 μg/ml putrescine, 0.1% BSA, 5 U/ml PenStrep, 10 μg/ml insulin) supplemented with the following growth factors: Platelet derived growth factor-AA (PDGF) and fibroblast growth factor-2 (FGF). • 4. Plate the cells on PDL-coated dishes and incubate at 37° C. with 6-7% CO2. • 5. Media components are replaced every 48 hr to keep the cells in a progenitor state. Progenitor Cell Passaging to Increase Cell Numbers for Screening Assays: • 1. […]
• 1. […] PPAR delta pathway member transcript expression is quantitated using Sybr Green PCR Master Mix. • 4. […]

Mouse PPAR delta = molecular target: T1, Mouse PPAR delta (Mus musculus, UniProt P35396); assay: Mouse PPAR delta GAL4/luciferase reporter assay
T1 construct: expressed in transfected cells
T1 sequence (P35396 1-440): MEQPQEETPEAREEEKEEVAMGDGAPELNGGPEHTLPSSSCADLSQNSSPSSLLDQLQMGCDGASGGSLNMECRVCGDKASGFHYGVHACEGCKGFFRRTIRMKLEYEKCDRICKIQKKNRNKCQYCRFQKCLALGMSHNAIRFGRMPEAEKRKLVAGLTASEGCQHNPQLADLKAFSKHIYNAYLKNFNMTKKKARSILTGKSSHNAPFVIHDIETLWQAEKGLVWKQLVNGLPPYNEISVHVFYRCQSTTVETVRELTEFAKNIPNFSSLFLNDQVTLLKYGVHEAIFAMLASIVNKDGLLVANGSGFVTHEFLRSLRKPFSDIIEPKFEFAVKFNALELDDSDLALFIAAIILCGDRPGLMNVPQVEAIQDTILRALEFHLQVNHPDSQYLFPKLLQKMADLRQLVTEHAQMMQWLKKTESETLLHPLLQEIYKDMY
Description: The optimum nuclear receptor selectivity profile is determined by the GAL4/luciferase reporter assays.

human PPAR alpha = molecular target: T2, human PPAR alpha (Homo sapiens, UniProt Q07869); assay: Cellular PPAR alpha GAL4/luciferase reporter assay (HEK reporter cell line)
T2 construct: human PPAR alpha receptor (amino acids S167-Y468); expressed in transfected cells; host or cells: HEK cells, stably transfected (pcDNA3, CMV promoter)
T2 sequence (Q07869 167-468): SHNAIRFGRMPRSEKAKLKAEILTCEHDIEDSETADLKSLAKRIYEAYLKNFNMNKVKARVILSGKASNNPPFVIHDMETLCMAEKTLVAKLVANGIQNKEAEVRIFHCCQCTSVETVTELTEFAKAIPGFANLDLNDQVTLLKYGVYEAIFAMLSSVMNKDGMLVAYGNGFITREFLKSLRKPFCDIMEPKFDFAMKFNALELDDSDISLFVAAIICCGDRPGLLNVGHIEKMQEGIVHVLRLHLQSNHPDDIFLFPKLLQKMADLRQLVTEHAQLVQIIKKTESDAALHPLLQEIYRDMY
Description: The potency of substances which bind to human PPAR alpha and activate it in an agonistic manner is analyzed using a stably transfected HEK cell line (HEK=human embryo kidney) which is referred to here as PPAR alpha reporter cell line. It contains two genetic elements, a luciferase reporter element (pdeltaM-GAL4-Luc-Zeo) and a PPAR alpha fusion protein (GR-GAL4-humanPPAR alpha-LBD) which mediates expression of the luciferase reporter element depending on a PPAR alpha ligand. The stably and constitutively expressed fusion protein GR-GAL4-humanPPAR alpha-LBD binds in the cell nucleus of the PPAR alpha reporter cell line via the GAL4 protein portion to the GAL4 DNA binding motifs 5′-upstream of the luciferase reporter element which is stably integrated in the genome of the cell line. […] PPAR alpha ligands bind and activate the PPAR alpha fusion protein and thereby stimulate the expression of the luciferase reporter gene.
The finished PPAR alpha reporter cell line which contains a luciferase reporter element and constitutively expresses the PPAR alpha fusion protein (GR-GAL4-human PPAR alpha-LBD) was isolated by selection with zeocin (0.5 mg/ml) and G418 (0.5 mg/ml).

Row | Structure (SMILES) | ADRP mRNA [1] | EC50 (Mouse PPAR delta) | EC50 (human PPAR alpha)
1 | Cc1cc(SCc2sc(-c3ccc(C(F)(F)F)cc3)nc2C)ccc1OCC(=O)O [Compound 1] | upregulated |  | 
2 | CCCc1c(OCCCOc2ccc(OCC(=O)O)cc2)ccc(C(C)=O)c1O [Compound 2] |  | 1 µM | 1.1 µM
